Here are results for six compounds from patent US4140770A, “Benzoylethers and processes for their production” (A. Nattermann & Cie. GmbH, priority 1976, dated 1979).

Data set [1] is described as follows: Acute toxicity (LD50 mouse). The conditions noted are these: in vivo.
Data set [2] can be described thus: Acute toxicity (LD50 rat). To be noted: in vivo, iv. The text has this: +according to KOMLOS and PETOCZ, 20 Arzneimittel-Forschung 1338 (1970)
Data set [3] concerns intestine of the guinea pig (BaCl2-spasmus). Description: Spasmolytic effect, MAGNUS intestine of the guinea pig (against BaCl2-spasmus). To be noted: Cavia porcellus, read-out: ED50 spasmolytic effect. The text has this: 2.1 MAGNUS intestine of the guinea pig (against BaCl2 -spasmus)
The next data set has as its system BaCl2-spasmus. Description: Spasmolysis in situ of a guinea pig modified according to BROCK (against BaCl2-spasmus). It counts as in vivo. The text has this:
2.2 Spasmolysis in situ of a guinea pig modified according to BROCK (against BaCl2 -spasmus)

The next data set concerns A.femoralis. Nature of the data set: Increase in peripheral vasodilation (A.femoralis), narcotized dog, planimetric evaluation. The data set is classed as in vivo.
The subject of a further data set is coronary. Nature of the data set: Increase in coronary vasodilation (Bretschneider catheter), narcotized dog, planimetric evaluation. It counts as in vivo. The text has this:
3.3. Increase in coronary vasodilation (Bretschneider catheter) in the case of a narcotized dog (with planimetric evaluation taking into account the duration of the effect).

A short description of the next data set: Effect on blood pressure. The data set is classed as in vivo.
In the next data set the test system is mouse. The conditions noted are these: according to KOMLOS and PETOCZ (1970); cited from earlier work.
In a further data set the test system is rat. To be noted: according to KOMLOS and PETOCZ (1970), cited from earlier work.

≈ marks a conversion by molar mass, not a printed value.

Source text for A.femoralis: 3.2 Increase in peripheral vasodilation (A.femoralis) in the case of the narcotized dog (with planimetric evaluation taking into account the duration of the effect).

On to `CCN(CC)CCOc1c(C)cc(C(=O)CC(c2ccccc2)c2ccccc2)cc1C` [BC 58, 4-[2-(N,N-diethylamino)-ethoxy]-3,5-dimethyl-β,β-diphenylpropiophenone], for which the LD50 in [1] (iv, read-out: LD50 mouse i.v.) is 60 mg/kg; in [1] (po, read-out: LD50 mouse p.o.), 1900 mg/kg; in data set [2] it was 54 mg/kg. Besides, the IC50 in [3] was determined as 0.044 µg/mL (≈ 0.102 µM). In addition, the results for the “inhibition (spasmolysis in situ)” value in the data set with BaCl2-spasmus (5.6 mg/kg i.v.), in the data set on BaCl2-spasmus (10.0 mg/kg i.v.) and in the data set on BaCl2-spasmus (17.8 mg/kg i.v.) were 55%, 67% and 88%, respectively. The figures for the “Increase in peripheral vasodilation (A.femoralis)” value in the data set with A.femoralis (3.16 mg/kg i.v.), in the data set with A.femoralis (5.6 mg/kg i.v.) and in the data set with A.femoralis (10.0 mg/kg i.v.) were “approx. 400 ml × min”, “approx. 800 ml × min” and “approx. 2,200 ml × min”, respectively. Further, the “duration of the effect (peripheral vasodilation)” value in the data set on A.femoralis (versus papaverine, i.v.) is on record as “longer duration of the effect”. For the same compound, the results for the “Increase in coronary vasodilation” value in the data set with coronary (3.16 mg/kg i.v.) and in the data set with coronary (5.6 mg/kg i.v.) were “approx. 350 ml × min” and “approx. 680 ml × min”, respectively. For the same compound, the entries for the “Effect on blood pressure” value in the data set “Effect on blood pressure” (3.16 mg/kg i.v.), in “Effect on blood pressure” (5.6 mg/kg i.v.) and in the data set “Effect on blood pressure” (10.0 mg/kg i.v.) were “approx. 30 mm Hg”, “approx. 30 mm Hg” and “approx. 40 mm Hg”, respectively.
Turning to `Cc1cc(C(=O)CC(c2ccccc2)c2ccccc2)cc(C)c1OCCN(C)C` [BC 77, 4-[2-(N,N-dimethylamino)-ethoxy]-3,5-dimethyl-β,β-diphenylpropiophenone], the IC50 in [3] turned out to be 0.79 µg/mL (≈ 1.97 µM).
As to `Cc1cc(C(=O)CC(c2ccccc2)c2ccccc2)cc(C)c1OCCN(C(C)C)C(C)C` [BC 79, 4-[2-(N,N-diisopropylamino)-ethoxy]-3,5-dimethyl-β,β-diphenylpropiophenone], the IC50 in [3] was 0.28 µg/mL (≈ 0.612 µM).
With `CC[N+](C)(CC)CCOc1c(C)cc(C(=O)CC(c2ccccc2)c2ccccc2)cc1C` [BC 96 a], the LD50 in data set [1] (iv, read-out: LD50 mouse i.v.) came out at 7.93 mg/kg; in [1] (po, read-out: LD50 mouse p.o.), 1280 mg/kg.
The like results for `CC[N+](CC)(CCOc1c(C)cc(C(=O)CC(c2ccccc2)c2ccccc2)cc1C)Cc1ccccc1` [BC 96 c] were, in that order, 10 to 12 mg/kg and ~2000 mg/kg.
Consider `COc1ccc(Cc2nccc3cc(OC)c(OC)cc23)cc1OC` [Papaverine, reference compound], for which the LD50 in data set [1] (iv, read-out: LD50 mouse i.v.) is 44 mg/kg. In data set [3], the IC50 turned out to be 0.79 µg/mL (≈ 2.33 µM). The “inhibition (spasmolysis in situ)” value is listed as 5% in the data set with BaCl2-spasmus (5.6 mg/kg i.v.), 8% in the data set on BaCl2-spasmus (10.0 mg/kg i.v.) and 57% with BaCl2-spasmus (17.8 mg/kg i.v.). In addition, the “Increase in peripheral vasodilation (A.femoralis)” value is on record as “approx. 100 ml × min” in the data set with A.femoralis (3.16 mg/kg i.v.), “approx. 250 ml × min” with A.femoralis (5.6 mg/kg i.v.) and “approx. 180 ml × min” in the data set on A.femoralis (10.0 mg/kg i.v.). In the data set on coronary (5.6 mg/kg i.v.), the “Increase in coronary vasodilation” value is reported as “approx. 75 ml × min”. For the same compound, the entries for the “Effect on blood pressure” value in “Effect on blood pressure” (3.16 mg/kg i.v.), in the data set “Effect on blood pressure” (5.6 mg/kg i.v.) and in “Effect on blood pressure” (10.0 mg/kg i.v.) were “approx. 25 mm Hg”, “approx. 35 mm Hg” and “approx. 40 mm Hg”, respectively. The LD50 mouse p.o. in the data set on mouse was 343 mg/kg. Further, in the data set on rat (i.v.), the LD50 rat i.v. is listed as 18 mg/kg. Further, the LD50 rat p.o. in the data set with rat (p.o.) is on record as 325 mg/kg.
